{"source": "patent US20240174622A1", "about": "“COMPOUND AND RADIOACTIVE LABELING COMPOUND” (NIHON MEDI-PHYSICS CO., LTD., priority 2021, published 2024)", "key": {"[1]": {"system": "LNCaP tumor", "assay_type": "in vivo, mouse", "settings": "for time after administration at which a significant difference in tumor volume from the saline-administered group was observed: 3.7 MBq, tail vein", "description": "LNCaP tumor-implanted mice were administered saline solutions (100 μL) of [^90Y]Y-PSMA-DA1 (3.7 MBq) or [^90Y]Y-PSMA-DB (3.7 MBq) obtained by the method described above from the tail vein (n=7). As the control group, LNCaP tumor-implanted mice were administered 100 μL of saline from the tail vein (n=7). After administration of the ^90Y-labeling compound, the tumor volume and body weight were measured 3 times per week. The tumor volume was calculated based on the calculation formula “(tumor volume)=[(long side) x (short side) 2/2]”."}, "[2]": {"system": "LNCaP tumor", "assay": "Evaluation of suppressing tumor growth by 225Ac-labeling compound", "assay_type": "in vivo, mouse", "settings": "20 kBq, tail vein", "description": "[^225Ac]Ac-PSMA-DA1 (20 kBq) or [^225Ac]Ac-PSMA-DB (20 kBq) obtained by the above method was dissolved in 5% ethanol-containing acetate buffer (158 mM, pH 6.5, 100 μL), and the solution was administered to LNCaP tumor-transplanted mice from the tail vein (n=6 or 5). As the control group, 100 μL of 5% ethanol-containing acetate buffer (158 mM, pH 6.5) was administered to LNCaP tumor-transplanted mice from the tail vein (n=4).\nAfter administration of the ^225Ac-labeling compound, the tumor volume and body weight were measured 2 times per week. The tumor volumes on the day when administration of ^225Ac-labeling compound was started were 75.3±26.0, 80.6±20.8, and 91.1±15.9 mm^3 for the groups administered [^225Ac]Ac-PSMA-DA1, [^225Ac]Ac-PSMA-DB, and 5% ethanol-containing acetate buffer, respectively."}, "[3]": {"settings": "compared with one hour after administration; EJNMMI Res 2012, J Nucl Med 2017; cited from earlier work"}}}
{"smiles": "O=C([O-])CN1CCN(C(CCC(=O)NCCCC[C@H](NC(=O)N[C@@H](CCC(=O)O)C(=O)O)C(=O)O)C(=O)[O-])CCN(CC(=O)[O-])CCN(C(CCC(=O)N[C@@H](CCCCNC(=O)CCCc2ccc(I)cc2)C(=O)O)C(=O)[O-])CC1.[90Y+3]", "note": "(stereo partly shown) [[^90Y]Y-PSMA-DA1]", "values": [{"measurement": "time after administration at which a significant difference in tumor volume from the saline-administered group was observed", "setting": "[1]", "result": 9, "unit": "days"}, {"measurement": "body weight of the mice", "setting": "[1]; mouse, in vivo", "result": "slightly reduced"}]}
{"smiles": "O=C([O-])CN1CCN(C(CCC(=O)NCCCC[C@H](NC(=O)N[C@@H](CCC(=O)O)C(=O)O)C(=O)O)C(=O)[O-])CCN(CC(=O)[O-])CCN(C(CCC(=O)N[C@@H](CCCCNC(=O)CCCc2ccc(I)cc2)C(=O)O)C(=O)[O-])CC1.[225Ac+3]", "note": "(stereo partly shown) [[^225Ac]Ac-PSMA-DA1]", "values": [{"measurement": "body weight reduction", "setting": "[2]", "result": "transient"}, {"measurement": "growth suppression continuously observed until", "setting": "[2]", "result": 6, "unit": "weeks"}, {"measurement": "tumor growth compared with the control group", "setting": "[2]", "result": "significantly suppressed"}]}
{"smiles": "O=C([O-])CN1CCN(C(CCC(=O)NCCCC[C@H](NC(=O)N[C@@H](CCC(=O)O)C(=O)O)C(=O)O)C(=O)[O-])CCN(CC(=O)[O-])CCN(C(CCC(=O)Nc2ccccc2)C(=O)[O-])CC1.[90Y+3]", "note": "(stereo partly shown) [[^90Y]Y-PSMA-DB, reference compound]", "values": [{"measurement": "time after administration at which a significant difference in tumor volume from the saline-administered group was observed", "setting": "[1]", "result": 33, "unit": "days"}]}
{"smiles": "O=C([O-])CN(CCN(CC(=O)[O-])Cc1cc(CCC(=O)NCCCCCC(=O)NCCCC[C@H](NC(=O)N[C@@H](CCC(=O)O)C(=O)O)C(=O)O)ccc1[O-])Cc1cc(CCC(=O)O)ccc1[O-].[68Ga+3].[OH3+]", "note": "[[^68Ga]Ga-PSMA-11]", "values": [{"measurement": "kidney accumulation of known radiolabeled compound", "setting": "[3]", "result": 139, "unit": "% ID/g"}]}
